The source of these data is patent US11925724B2, “Compounds with dual activity” (priority 2015, dated 2024).

Data set [1] is described as follows: Peptide layer thickness on Ti by XPS. The class given is physicochemical. To be noted: peptide-coated Ti substrate. The text has this: Using X-ray Photoelectron Spectrometry (XPS) analysis, the presence of fluorine atoms on the surface and the thickness of the peptide layer were characterized. As expected, in the case of a bare titanium, there was no indication of the presence of fluorine, while in all cases of substrate-coated with peptides, the presence of fluorine signal indicated the deposition of the peptides on the surface (FIG. 3).

A further data set concerns Escherichia Coli. The experiment in a line: Adherence of Escherichia Coli to bare and peptide coated substrates (live bacteria count after biofilm formation). The class given is cell-based. The settings on record: peptide-coated Ti, overnight incubation in bacteria medium, CFU plate counts. As for the experimental part: To assess the bacterial attachment to the surfaces and the anti-fouling activity of the peptides, the adherence of Escherichia Coli to bare and peptide coated substrates was promoted. Following this, the surfaces incubated overnight in the bacteria medium to enable the biofilm formation. After the incubation, the surfaces were slowly rinsed, swabbed the adhered bacteria and seeded them in order to evaluate the number of live bacteria on the substrates. […] Escherichia coli were grown in LB medium for 5.5 hours at 37° C. in loosely capped erlenmeyer flask with agitation (120 rpm). […] Afterward, LB media (2 mL) were added to each well and the plates were incubated at 37° C. overnight. Each surface was rinsed by shaking the surface in sterilized water three times. A sterile swab was then used to pick up the biofilms attached to the surfaces. The swabs were inserted into eppendorf tubes containing 1 mL of sterilized water and vortexed for 1 min. Each sample was decimally diluted and plated out on dried LB agar (10 g LB and 7.5 g agar per 0.5 L TDW) plate (8 drops of 10 ul for each dilution). Plate counts (CFU mL-1) were carried out after incubation over night at 37° C. The data presents 3 experiments with triplicates for each experiment. The data is given as mean values ±standard deviations. Significant differences between group means were analyzed by t-test and confidence levels were set at 95%.

Square brackets hold non-standard residues; d marks the D form. Ends that are not written are not given here. Peptide text beside a SMILES is read from it. Phe(4-F) = N[CH](Cc1ccc(F)cc1)C(=O)O; Dopa = N[CH](Cc1ccc(O)c(O)c1)C(=O)O

Take `N=C(N)NCCCC(NC(=O)C(Cc1ccc(F)cc1)NC(=O)C(Cc1ccc(F)cc1)NC(=O)C(N)Cc1ccc(O)c(O)c1)C(=O)NCC(=O)NC(CC(=O)O)C(N)=O` (stereo not drawn) [Peptide 1, DOPA-Phe(4F)-Phe(4F)-Arg-Gly-Asp] (H-[Dopa][Phe(4-F)][Phe(4-F)]RGD-NH2; configuration not given here): in data set [1], the “thickness of the peptide layer (XPS)” value is on record as 4.74 nm. Also, the “reduction of live bacteria on substrate as compared to a bare Ti surface” value (“reduction of live bacteria on substrate” below) with Escherichia Coli was “up to 80%”. On the same counts, the results for `N=C(N)NCCCC(NC(=O)C(Cc1ccc(O)c(O)c1)NC(=O)C(Cc1ccc(F)cc1)NC(=O)C(N)Cc1ccc(F)cc1)C(=O)NCC(=O)NC(CC(=O)O)C(N)=O` (stereo not drawn) [Peptide 2] (H-[Phe(4-F)][Phe(4-F)][Dopa]RGD-NH2; configuration not given here) are 4.33 nm and at most 82%. As for `N=C(N)NCCCC(NC(=O)C(Cc1ccc(F)cc1)NC(=O)C(CC(=O)O)NC(=O)C(N)Cc1ccc(O)c(O)c1)C(=O)NC(Cc1ccc(F)cc1)C(=O)NCC(N)=O` (stereo not drawn) [Peptide 3] (H-[Dopa]D[Phe(4-F)]R[Phe(4-F)]G-NH2; configuration not given here), the “reduction of live bacteria on substrate” value in the data set on Escherichia Coli is recorded as “up to 72%”.

Turning to “Peptide 4: control peptide with the same amino acids in mixed sequence, without the cell adhesion and the anti-fouling elements ([Dopa][Phe(4-F)]DG[Phe(4-F)]R; not fully specified (C-terminus))”, in the data set with Escherichia Coli, the “reduction of live bacteria on substrate” value was at most 62%.
